Experimental data taken from patent US7374875B2, “Peptides having affinity for the gp120 viral protein and use thereof” (priority 2001, dated 2008).

Test system: PHA-P-activated PBMCs
Test: Toxicity test, viability of PHA-P-activated PBMCs
Format: cell-based, human
Settings: at the doses tested
Protocol: The PBMCs are separated from the other represented elements of the blood by ficoll (MSL 2000, Eurobio) gradient centrifiguation: 30 ml of blood, from a healthy donor, diluted by a third are deposited onto a 20 ml ficoll cushion. After centrifugation for 20 min at 850 g, the ring of PBMCs is removed and then washed twice with RPMI 1640, after centrifugation at 750 g for 10 min and at 400 g for 5 min. The PBMCs are then activated for 48 h with 1 μg/ml of phytohaemagglutinin-P (PHA-P; Difco Laboratories). The PBMCs are cultured at +37° C., in an atmosphere saturated with humidity, under 5% CO2. At the end of the 48 hours of mitogenic activation, they are cultured in medium B. Throughout the culturing, the culture supernatants are sampled, and the culture media are renewed every three or four days. At each renewal of the culture media, the cell viability is evaluated by microscopic observation.
In all the experiments, the effects of the new molecules were compared to those of AZT. […] CD4 mimetic toxicity tests were also carried out on the same cells.

Cc1cn([C@H]2C[C@H](N=[N+]=[N-])[C@@H](CO)O2)c(=O)[nH]c1=O [AZT]
viability of the PHA-P-activated PBMCs (in words): none of the compounds, AZT, SAH-CD4 or anti-CD4 mimetics, decreased the viability
